Numbers after ± are expanded uncertainties.
Assay: excess molar enthalpy (molar enthalpy of mixing); xn = mol fraction of the nth substance listed
Conditions: 933 K, 101 kPa, Liquid, Calvet calorimetry

[Cl-].[Li+] [lithium chloride] + [Cl-].[K+]
Conditions | excess molar enthalpy [kcal/mol]
x2 = 0 | 0 ± 0.000239
x2 = 0.026 | -0.117 ± 0.0098
x2 = 0.061 | -0.239 ± 0.0143
x2 = 0.073 | -0.308 ± 0.0165
x2 = 0.105 | -0.372 ± 0.0198
x2 = 0.128 | -0.488 ± 0.0263
x2 = 0.162 | -0.542 ± 0.0287
x2 = 0.188 | -0.638 ± 0.0335
x2 = 0.214 | -0.705 ± 0.0359
x2 = 0.24 | -0.781 ± 0.0406
x2 = 0.275 | -0.861 ± 0.043
x2 = 0.298 | -0.884 ± 0.0454
x2 = 0.33 | -0.965 ± 0.0478
x2 = 0.371 | -1.02 ± 0.0526
x2 = 0.418 | -1.06 ± 0.055
x2 = 0.427 | -1.04 ± 0.0526
